Where “and” joins values, the source holds several entries; their conditions need not be identical. Identical values can stand only once. Toxic doses and inconclusive results are not listed.
Tested on: P388 leukemia ip, CD2F1 mice, survival T/C
Experiment: NCI In Vivo Anticancer Drug Screen. Data for tumor model P388 Leukemia (intraperitoneal) in CD2F1 (CDF1) mice
Conditions: endpoint: median survival time, higher = longer survival
How it was run: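 Mice carrying the transplanted tumor received test compound or vehicle. Survival was recorded in each group, and the value is the treated-group measurement divided by that of the vehicle-treated control group.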

[1] = dose: 50.0 mg/kg/injection, schedule: Q01DX009 (ip), vehicle: saline with Tween-80
[2] = dose: 100.0 mg/kg/injection, schedule: Q01DX009 (ip), vehicle: saline with Tween-80
[3] = dose: 200.0 mg/kg/injection, schedule: Q01DX009 (ip), vehicle: saline with Tween-80
[4] = dose: 100.0 mg/kg/injection, schedule: Q01DX001 (ip), vehicle: saline with Tween-80
[5] = dose: 25.0 mg/kg/injection, schedule: Q01DX009 (ip), vehicle: saline with Tween-80
[6] = dose: 12.5 mg/kg/injection, schedule: Q01DX009 (ip), vehicle: Klucel (hydroxypropylcellulose) (HPC)
[7] = dose: 25.0 mg/kg/injection, schedule: Q01DX009 (ip), vehicle: Klucel (hydroxypropylcellulose) (HPC)

SMILES: CNC(=O)OCc1nc(SC)n(-c2ccccc2)c1COC(=O)NC
- T/C (dose: 12.5 mg/kg/injection, schedule: Q01DX005 (ip), vehicle: distilled water + Tween-80): 99 % of control
- T/C (dose: 25.0 mg/kg/injection, schedule: Q01DX005 (ip), vehicle: distilled water + Tween-80): 101 % of control
- T/C (dose: 50.0 mg/kg/injection, schedule: Q01DX005 (ip), vehicle: distilled water + Tween-80): 99 % of control and 102 % of control and 92 % of control
- T/C (dose: 100.0 mg/kg/injection, schedule: Q01DX005 (ip), vehicle: distilled water + Tween-80): 101 % of control and 106 % of control and 108 % of control
- T/C (dose: 200.0 mg/kg/injection, schedule: Q01DX005 (ip), vehicle: distilled water + Tween-80): 113 % of control
- T/C (dose: 400.0 mg/kg/injection, schedule: Q01DX005 (ip), vehicle: distilled water + Tween-80): 99 % of control

SMILES: COc1ccc(CC2CCCNC2C(=O)O)cc1 (stereo not drawn)
- T/C [1]: 114 % of control
- T/C [2]: 101 % of control
- T/C [3]: 99 % of control

SMILES: COc1ccc2cc1Oc1ccc(cc1)CC1c3cc(c(OC)cc3CCN1C)Oc1c(OC)c(OC)c(O)c3c1C(C2)N(C)CC3 (stereo not drawn)
- T/C (dose: 25.0 mg/kg/injection, schedule: Q01DX001 (ip), vehicle: saline with Tween-80): 99 % of control
- T/C (dose: 50.0 mg/kg/injection, schedule: Q01DX001 (ip), vehicle: saline with Tween-80): 105 % of control
- T/C [4]: 108 % of control and 111 % of control

SMILES: Nc1c(-c2nc3ccc(C4=NCCN4)cc3[nH]2)[nH]c2cc(-c3nc4ccc(C5=NCCN5)cc4[nH]3)ccc12
- T/C (dose: 50.0 mg/kg/injection, schedule: Q01DX005 (ip), vehicle: Klucel (hydroxypropylcellulose) (HPC)): 90 % of control
- T/C (dose: 100.0 mg/kg/injection, schedule: Q01DX005 (ip), vehicle: Klucel (hydroxypropylcellulose) (HPC)): 90 % of control

SMILES: OC1(c2ccccc2)CCCCCC1
- T/C [5]: 113 % of control
- T/C [1]: 106 % of control
- T/C [2]: 106 % of control and 108 % of control

SMILES: Cc1cc2ccccc2nc1Cl
- T/C (dose: 60.0 mg/kg/injection, schedule: Q01DX005 (ip), vehicle: saline + Tween-80 + alcohol): 100 % of control
- T/C (dose: 120.0 mg/kg/injection, schedule: Q01DX005 (ip), vehicle: saline + Tween-80 + alcohol): 104 % of control
- T/C (dose: 240.0 mg/kg/injection, schedule: Q01DX005 (ip), vehicle: saline + Tween-80 + alcohol): 104 % of control

SMILES: CCCCCCCCCCCCCCCCCCCCCCCCC(O)C(=O)NC(CO)C(O)C(O)CCCCCCCCCCCCCC (stereo not drawn)
- T/C (dose: 1.56 mg/kg/injection, schedule: Q04DX003 (ip), vehicle: saline with Tween-80): 91 % of control
- T/C (dose: 3.13 mg/kg/injection, schedule: Q04DX003 (ip), vehicle: saline with Tween-80): 100 % of control
- T/C (dose: 6.25 mg/kg/injection, schedule: Q04DX003 (ip), vehicle: saline with Tween-80): 95 % of control

SMILES: CCOC(=O)c1sc(N)c(C(=O)OCC)c1C
- T/C [2]: 86 % of control

SMILES: C=C1C(=O)C23OC2C1CCC(=O)C1(C)CC[C@H](OC(C)=O)C(C)(C)[C@H]1CC3O (stereo partly drawn)
- T/C (dose: 5.0 mg/kg/injection, schedule: Q01DX005 (ip), vehicle: Klucel (hydroxypropylcellulose) (HPC)): 104 % of control
- T/C (dose: 10.0 mg/kg/injection, schedule: Q01DX005 (ip), vehicle: Klucel (hydroxypropylcellulose) (HPC)): 109 % of control
- T/C (dose: 20.0 mg/kg/injection, schedule: Q01DX005 (ip), vehicle: Klucel (hydroxypropylcellulose) (HPC)): 111 % of control
- T/C (dose: 40.0 mg/kg/injection, schedule: Q01DX005 (ip), vehicle: Klucel (hydroxypropylcellulose) (HPC)): 110 % of control and 114 % of control

SMILES: O=C(O)/C(Br)=C(/Br)C(=O)O
- T/C (dose: 100.0 mg/kg/injection, schedule: Q04DX002 (ip), vehicle: saline with Tween-80): 106 % of control
- T/C (dose: 200.0 mg/kg/injection, schedule: Q04DX002 (ip), vehicle: saline with Tween-80): 100 % of control

SMILES: COC1C(/C=C/C(=O)CCl)OC2OC(C)(C)OC21 (stereo not drawn)
- T/C (dose: 3.12 mg/kg/injection, schedule: Q01DX005 (ip), vehicle: saline): 108 % of control
- T/C (dose: 6.25 mg/kg/injection, schedule: Q01DX005 (ip), vehicle: saline): 108 % of control
- T/C (dose: 12.5 mg/kg/injection, schedule: Q01DX005 (ip), vehicle: saline): 105 % of control

SMILES: CCCCCCCCCCC(CCCCCC)C(=O)O (stereo not drawn)
- T/C (dose: 75.0 mg/kg/injection, schedule: Q01DX001 (ip), vehicle: saline with Tween-80): 104 % of control
- T/C (dose: 150.0 mg/kg/injection, schedule: Q01DX001 (ip), vehicle: saline with Tween-80): 104 % of control
- T/C (dose: 300.0 mg/kg/injection, schedule: Q01DX001 (ip), vehicle: saline with Tween-80): 100 % of control

SMILES: S=c1[nH]ccs1
- T/C (dose: 12.5 mg/kg/injection, schedule: Q01DX009 (ip), vehicle: water): 99 % of control
- T/C (dose: 25.0 mg/kg/injection, schedule: Q01DX009 (ip), vehicle: water): 99 % of control
- T/C (dose: 50.0 mg/kg/injection, schedule: Q01DX009 (ip), vehicle: water): 95 % of control

SMILES: C/C(=N\Nc1ccc([N+](=O)[O-])cc1[N+](=O)[O-])c1ccc(C)cc1
- T/C (dose: 50.0 mg/kg/injection, schedule: Q01DX001 (ip), vehicle: Klucel (hydroxypropylcellulose) (HPC)): 105 % of control
- T/C (dose: 100.0 mg/kg/injection, schedule: Q01DX001 (ip), vehicle: Klucel (hydroxypropylcellulose) (HPC)): 107 % of control
- T/C (dose: 200.0 mg/kg/injection, schedule: Q01DX001 (ip), vehicle: Klucel (hydroxypropylcellulose) (HPC)): 95 % of control
- T/C (dose: 400.0 mg/kg/injection, schedule: Q01DX001 (ip), vehicle: Klucel (hydroxypropylcellulose) (HPC)): 91 % of control

SMILES: C=C(C)C1CCC2=CC(CC3(C)OC3C3=CC(C(=O)OC)=C(C1)O3)OC2=O (stereo not drawn)
- T/C [6]: 99 % of control
- T/C [7]: 104 % of control
- T/C (dose: 50.0 mg/kg/injection, schedule: Q01DX009 (ip), vehicle: Klucel (hydroxypropylcellulose) (HPC)): 100 % of control

SMILES: CC1(C)CC(=O)C2=C(C1)OC1=C(C(=O)CC(C)(C)C1)C2c1cccc([N+](=O)[O-])c1
- T/C [5]: 104 % of control and 95 % of control
- T/C [1]: 100 % of control and 93 % of control
- T/C [2]: 93 % of control and 94 % of control
- T/C [3]: 93 % of control and 95 % of control

SMILES: NC(=S)c1ccc(C=NCc2ccccc2)cc1
- T/C (dose: 100.0 mg/kg/injection, schedule: Q04DX002 (ip), vehicle: Klucel (hydroxypropylcellulose) (HPC)): 100 % of control
- T/C (dose: 200.0 mg/kg/injection, schedule: Q04DX002 (ip), vehicle: Klucel (hydroxypropylcellulose) (HPC)): 100 % of control
- T/C (dose: 400.0 mg/kg/injection, schedule: Q04DX002 (ip), vehicle: Klucel (hydroxypropylcellulose) (HPC)): 100 % of control

SMILES: O=[N+]([O-])c1cc(Cl)c(Cl)cc1Cl
- T/C [1]: 109 % of control
- T/C [2]: 100 % of control
- T/C [3]: 104 % of control

SMILES: c1ccc(CN2COc3c(ccc4c3OCN(Cc3ccccc3)C4)C2)cc1
- T/C (dose: 3.12 mg/kg/injection, schedule: Q01DX009 (ip), vehicle: Klucel (hydroxypropylcellulose) (HPC)): 107 % of control
- T/C (dose: 6.25 mg/kg/injection, schedule: Q01DX009 (ip), vehicle: Klucel (hydroxypropylcellulose) (HPC)): 104 % of control and 95 % of control
- T/C [6]: 103 % of control
- T/C [7]: 94 % of control

SMILES: S=C(S)n1nc(-c2ccccc2)c(N=Nc2cccc(Cl)c2)c1-c1ccccc1
- T/C [4]: 91 % of control
- T/C (dose: 200.0 mg/kg/injection, schedule: Q01DX001 (ip), vehicle: saline with Tween-80): 91 % of control
- T/C (dose: 400.0 mg/kg/injection, schedule: Q01DX001 (ip), vehicle: saline with Tween-80): 113 % of control

SMILES: CN(C)c1ccc(C(=C2C=CC(=[N+](C)C)C=C2)c2cc(S(=O)(=O)O)cc3cc(S(=O)(=O)O)ccc23)cc1
- T/C (dose: 50.0 mg/kg/injection, schedule: Q01DX005 (ip), vehicle: saline with Tween-80): 103 % of control
- T/C (dose: 100.0 mg/kg/injection, schedule: Q01DX005 (ip), vehicle: saline with Tween-80): 107 % of control
- T/C (dose: 200.0 mg/kg/injection, schedule: Q01DX005 (ip), vehicle: saline with Tween-80): 100 % of control

SMILES: O=C(Nc1c(Cl)cccc1Cl)Oc1ccc(Cl)cc1
- T/C (dose: 60.0 mg/kg/injection, schedule: Q01DX005 (ip), vehicle: saline with Tween-80): 122 % of control
- T/C (dose: 120.0 mg/kg/injection, schedule: Q01DX005 (ip), vehicle: saline with Tween-80): 114 % of control

SMILES: COc1cccc2c1C(=O)c1c(O)c3c(c(O)c1C2=O)C[C@@](O)(C(=O)COC(=O)CCCCC(=O)O)C[C@@H]3OC1CC(NC(=O)C(F)(F)F)C(O)C(C)O1 (stereo partly drawn)
- T/C (dose: 9.38 mg/kg/injection, schedule: Q04DX003 (ip), vehicle: other): 118 % of control
- T/C (dose: 18.75 mg/kg/injection, schedule: Q04DX003 (ip), vehicle: other): 123 % of control
- T/C (dose: 18.75 mg/kg/injection, schedule: Q04DX003 (ip), vehicle: saline with Tween-80): 119 % of control
- T/C (dose: 37.5 mg/kg/injection, schedule: Q04DX003 (ip), vehicle: other): 124 % of control
- T/C (dose: 75.0 mg/kg/injection, schedule: Q04DX003 (ip), vehicle: other): 156 % of control
- T/C (dose: 150.0 mg/kg/injection, schedule: Q04DX003 (ip), vehicle: other): 194 % of control

SMILES: Cc1cccc(C(=O)N(C)C(c2ccco2)P(=O)(c2ccccc2)c2ccccc2)c1 (stereo not drawn)
- T/C [1]: 107 % of control
- T/C [2]: 101 % of control
- T/C [3]: 90 % of control
- T/C (dose: 400.0 mg/kg/injection, schedule: Q01DX009 (ip), vehicle: saline with Tween-80): 86 % of control
